Test results: ChEMBL document CHEMBL3745650, “Anti-inflammatory properties of quebecol and its derivatives” (Bioorg Med Chem Lett, 2016)

Assays:
[1] = Cytotoxicity against PMA-differentiated human U937 macrophages assessed as reduction in cell viability after 24 hrs by MTT assay; assay type: cell-based; conditions: u-937, 24 h
[2] = Antiinflammatory activity in PMA-differentiated human U937 cells assessed as inhibition of LPS-stimulated IL-6 secretion at 500 uM preincubated for 2 hrs followed by LPS-stimulation measured after 24 hrs by ELISA relative to control; assay type: functional; conditions: U-937
[3] = Antiinflammatory activity in PMA-differentiated human U937 cells assessed as inhibition of LPS-stimulated IL-6 secretion at 250 uM preincubated for 2 hrs followed by LPS-stimulation measured after 24 hrs by ELISA relative to control; assay type: functional; conditions: U-937
[4] = Antiinflammatory activity in PMA-differentiated human U937 cells assessed as inhibition of LPS-stimulated IL-6 secretion at 125 uM preincubated for 2 hrs followed by LPS-stimulation measured after 24 hrs by ELISA relative to control; assay type: functional; conditions: U-937
[5] = Antiinflammatory activity in PMA-differentiated human U937 cells assessed as inhibition of LPS-stimulated IL-8 secretion at 500 uM preincubated for 2 hrs followed by LPS-stimulation measured after 24 hrs by ELISA relative to control; assay type: functional; conditions: U-937
[6] = Antiinflammatory activity in PMA-differentiated human U937 cells assessed as inhibition of LPS-stimulated IL-8 secretion at 250 uM preincubated for 2 hrs followed by LPS-stimulation measured after 24 hrs by ELISA relative to control; assay type: functional; conditions: U-937
[7] = Antiinflammatory activity in PMA-differentiated human U937 cells assessed as inhibition of LPS-stimulated IL-8 secretion at 125 uM preincubated for 2 hrs followed by LPS-stimulation measured after 24 hrs by ELISA relative to control; assay type: functional; conditions: U-937
[8] = Antiinflammatory activity in PMA-differentiated human U937 cells assessed as inhibition of LPS-stimulated IL-1beta secretion at 500 uM preincubated for 2 hrs followed by LPS-stimulation measured after 24 hrs by ELISA relative to control; assay type: functional; conditions: U-937
[9] = Antiinflammatory activity in PMA-differentiated human U937 cells assessed as inhibition of LPS-stimulated IL-1beta secretion at 250 uM preincubated for 2 hrs followed by LPS-stimulation measured after 24 hrs by ELISA relative to control; assay type: functional; conditions: U-937
[10] = Antiinflammatory activity in PMA-differentiated human U937 cells assessed as inhibition of LPS-stimulated IL-1beta secretion at 125 uM preincubated for 2 hrs followed by LPS-stimulation measured after 24 hrs by ELISA relative to control; assay type: functional; conditions: U-937
[11] = Antiinflammatory activity in PMA-differentiated human U937 cells assessed as inhibition of LPS-stimulated TNF-alpha secretion at 500 uM preincubated for 2 hrs followed by LPS-stimulation measured after 24 hrs by ELISA relative to control; assay type: functional; conditions: U-937
[12] = Antiinflammatory activity in PMA-differentiated human U937 cells assessed as inhibition of LPS-stimulated TNF-alpha secretion at 250 uM preincubated for 2 hrs followed by LPS-stimulation measured after 24 hrs by ELISA relative to control; assay type: functional; conditions: U-937
[13] = Antiinflammatory activity in PMA-differentiated human U937 cells assessed as inhibition of LPS-stimulated TNF-alpha secretion at 125 uM preincubated for 2 hrs followed by LPS-stimulation measured after 24 hrs by ELISA relative to control; assay type: functional; conditions: U-937
[14] = Antiinflammatory activity in human U937-3xkB-luc cells assessed as inhibition of LPS-induced NFkappaB activation at 100 uM preincubated for 30 mins followed by LPS-stimulation measured after 6 hrs by luciferase assay relative to control; assay type: functional; conditions: U-937
[15] = Antiinflammatory activity in human U937-3xkB-luc cells assessed as inhibition of LPS-induced NFkappaB activation at 20 uM preincubated for 30 mins followed by LPS-stimulation measured after 6 hrs by luciferase assay relative to control; assay type: functional; conditions: U-937
[16] = Antiinflammatory activity in human U937-3xkB-luc cells assessed as inhibition of LPS-induced NFkappaB activation at 5 uM preincubated for 30 mins followed by LPS-stimulation measured after 6 hrs by luciferase assay relative to control; assay type: functional; conditions: U-937
[17] = Antiinflammatory activity in PMA-differentiated human U937 cells assessed as inhibition of LPS-stimulated IL-6 secretion at 62.5 uM preincubated for 2 hrs followed by LPS-stimulation measured after 24 hrs by ELISA relative to control; assay type: functional; conditions: U-937
[18] = Antiinflammatory activity in PMA-differentiated human U937 cells assessed as inhibition of LPS-stimulated IL-8 secretion at 62.5 uM preincubated for 2 hrs followed by LPS-stimulation measured after 24 hrs by ELISA relative to control; assay type: functional; conditions: U-937
[19] = Antiinflammatory activity in PMA-differentiated human U937 cells assessed as inhibition of LPS-stimulated IL-1beta secretion at 62.5 uM preincubated for 2 hrs followed by LPS-stimulation measured after 24 hrs by ELISA relative to control; assay type: functional; conditions: U-937
[20] = Antiinflammatory activity in PMA-differentiated human U937 cells assessed as inhibition of LPS-stimulated TNF-alpha secretion at 62.5 uM preincubated for 2 hrs followed by LPS-stimulation measured after 24 hrs by ELISA relative to control; assay type: functional; conditions: U-937
[21] = Antiinflammatory activity in human U937-3xkB-luc cells assessed as inhibition of LPS-induced NFkappaB activation preincubated for 30 mins followed by LPS-stimulation measured after 6 hrs by luciferase assay relative to control; assay type: functional, U-937
[22] = Antiinflammatory activity in PMA-differentiated human U937 cells assessed as inhibition of LPS-stimulated IL-1beta secretion preincubated for 2 hrs followed by LPS-stimulation measured after 24 hrs by ELISA relative to control; assay type: functional, U-937
[23] = (§1) Antiinflammatory activity in PMA-differentiated human U937 cells assessed as inhibition of LPS-stimulated IL-6 secretion preincubated for 2 hrs followed by LPS-stimulation measured after 24 hrs by ELISA relative to control; assay type: functional, U-937
[24] = Antiinflammatory activity in PMA-differentiated human U937 cells assessed as inhibition of LPS-stimulated IL-8 secretion preincubated for 2 hrs followed by LPS-stimulation measured after 24 hrs by ELISA relative to control; assay type: functional, U-937
[25] = (§2) Antiinflammatory activity in PMA-differentiated human U937 cells assessed as inhibition of LPS-stimulated TNF-alpha secretion preincubated for 2 hrs followed by LPS-stimulation measured after 24 hrs by ELISA relative to control; assay type: functional, U-937
[26] = tested on: U-937; test: as §1; assay type: functional
[27] = tested on: U-937; test: as §2; assay type: functional

| Structure (SMILES) | Activity [1] [µM] | inhibition at 500 µM [2] [%] | inhibition at 250 µM [3] [%] | inhibition at 125 µM [4] [%] | inhibition at 500 µM [5] [%] | inhibition at 250 µM [6] [%] | inhibition at 125 µM [7] [%] | inhibition at 500 µM [8] [%] | inhibition at 250 µM [9] [%] | inhibition at 125 µM [10] [%] | inhibition at 500 µM [11] [%] | inhibition at 250 µM [12] [%] | inhibition at 125 µM [13] [%] | inhibition at 100 µM [14] [%] | inhibition at 20 µM [15] [%] | inhibition at 5 µM [16] [%] | inhibition at 62.5 µM [17] [%] | inhibition at 62.5 µM [18] [%] | inhibition at 62.5 µM [19] [%] | inhibition at 62.5 µM [20] [%] | further results |
| --- | --- | --- | --- | --- | --- | --- | --- | --- | --- | --- | --- | --- | --- | --- | --- | --- | --- | --- | --- | --- | --- |
| COc1cc(CC(=O)O)ccc1O [HOMOVANILLIC ACID] | > 1000 | 0 | 0 | 0 | 0 | 0 | 0 | 3.6 | 5.7 | 5.2 | 0 | 0 | 0 | 22.9 | 16.3 | 24 |  |  |  |  |  |
| CCOC(=O)C(c1ccc(O)c(OC)c1)C(c1ccc(O)c(OC)c1)c1ccc(O)c(OC)c1 (stereo not drawn) | 125 | 99.9 | 99.8 | 89.9 | 99.9 | 95 | 94.9 | 91.4 | 10.9 | 1.2 | 100 | 100 | 15.7 | 74.7 | 31.2 | 24 | 4.8 | 0 | 0 | 8.5 |  |
| COc1cc(Cc2ccc(O)c(OC)c2)ccc1O | 500 | 95.3 | 62.3 | 4.3 | 26.9 | 15 | 7.1 | 49.2 | 33.4 | 3 | 72.2 | 15 | 7.6 | 43.1 | 28.9 | 11 |  |  |  |  |  |
| CCOC(=O)C(=C(c1ccc(O)c(OC)c1)c1ccc(O)c(OC)c1)c1ccc(O)c(OC)c1 | 62.5 | 99.9 | 99.9 | 97.2 | 99.9 | 99.7 | 99.5 | 83.9 | 85.2 | 26.2 | 100 | 100 | 92.3 | 79.9 | 15.9 | 12.8 | 27.3 | 22.7 | 0 | 15.9 |  |
| CCOC(=O)Cc1ccc(O)c(OC)c1 | > 1000 | 0 | 0 | 0 | 0 | 0 | 0 | 0 | 5.7 | 2.7 | 6.9 | 1.1 | 0.1 | 14.6 | 21.8 | 13.6 |  |  |  |  |  |
| COc1cc(CCO)ccc1O | > 1000 | 0 | 0 | 0 | 0 | 0 | 0 | 11.3 | 17.4 | 24.4 | 0 | 5.2 | 6 | 8.3 | 2.6 | 0 |  |  |  |  |  |
| COc1cc(C(O)C(=O)O)ccc1O (stereo not drawn) | > 1000 | 0 | 0 | 0 | 0 | 0 | 0 | 7.2 | 8 | 7.4 | 0 | 4.6 | 0 | 16.3 | 5.7 | 0 |  |  |  |  |  |
| Cc1ccc(S(=O)(=O)/C=C/C#N)cc1 |  |  |  |  |  |  |  |  |  |  |  |  |  |  |  |  |  |  |  |  | inhibition (INH) [21]: 99.3%; inhibition (INH) [22]: 95.9%; inhibition (INH) [23]: 99.2%; inhibition (INH) [24]: 99.1%; inhibition (INH) [25]: 99.5% |
| COc1cc(C(CO)C(c2ccc(O)c(OC)c2)c2ccc(O)c(OC)c2)ccc1O (stereo not drawn) | 500 | 84.3 | 62.6 | 45.5 | 0.3 | 0 | 0.2 | 0.9 | 9.4 | 25.1 | 60 | 17.5 | 19.8 | 43.4 | 13.5 | 11.2 | 1.1 | 0 | 1.1 | 0 | inhibition [26]: Dose-dependent effect; inhibition [27]: Dose-dependent effect |
| CCOC(=O)C(O)c1ccc(O)c(OC)c1 (stereo not drawn) | > 1000 | 0 | 0 | 0 | 0 | 0 | 0 | 0 | 0 | 4 | 0 | 0 | 0 | 0 | 6.5 | 16.4 |  |  |  |  |  |
